According to the NIST ThermoML archive (doi:10.1016/j.fluid.2014.09.024):

Experiments:
[1] = for mass density: 101 kPa, Liquid, Vibrating tube method; for Normal melting temperature: Crystal, visual observation
[2] = refractive index (Na D-line) (dimensionless); conditions: 323.15 K; 101 kPa; Liquid; Standard Abbe refractometry
[3] = refractive index (Na D-line) (dimensionless); xn = mol fraction of the nth substance listed; conditions: 323.15 K, 101 kPa, Liquid, Standard Abbe refractometry
[4] = xn = mol fraction of the nth substance listed; conditions: 323.15 K, 101 kPa, Liquid, Vibrating tube method

COc1ccccc1 [anisole]
[1]
Conditions	mass density [kg/m3]
298.15 K	989.42
323.15 K	965.35

Conditions	Normal melting temperature [°C]	refractive index
[1]	-37.9	–
[2]	–	1.5012

COc1ccccc1 [anisole] + COC(=O)OC
Conditions	mass density, [4] [kg/m3]	refractive index, [3]
x2 = 0	965.35	1.5012
x2 = 0.05	967.83	1.4963
x2 = 0.1001	970.34	1.4908
x2 = 0.2001	975.5	1.4795
x2 = 0.3	980.89	1.4659
x2 = 0.4	986.63	1.4516
x2 = 0.5	992.69	1.437
x2 = 0.5999	999.08	1.4226
x2 = 0.7	1005.87	1.4087
x2 = 0.8	1013.1	1.393
x2 = 0.9	1020.95	1.3754
x2 = 0.95	1025.2	1.3655

COc1ccccc1 [anisole] + Oc1ccccc1
Conditions	mass density, [4] [kg/m3]	refractive index, [3]
x1 = 0.05	1044.95	1.535
x1 = 0.1001	1040.35	1.5333
x1 = 0.2	1031.27	1.5296
x1 = 0.3	1022.44	1.5259
x1 = 0.4	1013.68	1.522
x1 = 0.5	1005.11	1.5183
x1 = 0.6103	995.89	1.5144
x1 = 0.7	988.65	1.5114
x1 = 0.8	980.8	1.508
x1 = 0.9001	973.1	1.5047
x1 = 0.9498	969.31	1.503
x1 = 1	965.35	1.5012

COC(=O)OC [dimethyl carbonate]
[1]
Conditions	mass density [kg/m3]
298.15 K	1063.26
323.15 K	1029.81

Conditions	Normal melting temperature [°C]	refractive index
[1]	5.1	–
[2]	–	1.3546

COC(=O)OC [dimethyl carbonate] + COc1ccccc1
x1 = 1
Conditions	mass density [kg/m3]	refractive index
[3]	–	1.3546
[4]	1029.81	–

COC(=O)OC [dimethyl carbonate] + Oc1ccccc1
x1 = 1
Conditions	mass density [kg/m3]	refractive index
[3]	–	1.3546
[4]	1029.81	–

Oc1ccccc1 [phenol]
[1]
Conditions	mass density [kg/m3]
313.15 K	1058.51
323.15 K	1049.8

Conditions	Normal melting temperature [°C]	refractive index
[1]	41.0	–
[2]	–	1.5375

Oc1ccccc1 [phenol] + COC(=O)OC
Conditions	mass density, [4] [kg/m3]	refractive index, [3]
x2 = 0	1049.79	1.5375
x2 = 0.0469	1049.78	1.53
x2 = 0.1001	1049.78	1.5222
x2 = 0.2001	1049.38	1.5068
x2 = 0.3	1048.47	1.4912
x2 = 0.3999	1047.12	1.479
x2 = 0.5	1045.31	1.4698
x2 = 0.6	1043	1.4592
x2 = 0.7001	1040.26	1.4428
x2 = 0.8	1037.11	1.4169
x2 = 0.9	1033.66	1.384
x2 = 0.9499	1031.81	1.3675

Oc1ccccc1 [phenol] + COc1ccccc1
x2 = 0
Conditions	mass density [kg/m3]	refractive index
[3]	–	1.5375
[4]	1049.8	–
